How the values were obtained:
wheat = experiment: Test C pre-/postemergence test; type: in vivo, Triticum aestivum; conditions: for Plant response rating, Wheat: 31 g ai/ha, scale 0 to 100 (0 no effect, 100 complete control)
Summary of the method: (§1)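 Compounds in a non-phytotoxic solvent with surfactant applied preemergence to seeded pots and, at the same time, postemergence to plants 2–18 cm tall (1- to 4-leaf stage). Paddy tests: pots flooded to 3 cm, compound applied into the water, depth held throughout.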

common ragweed = experiment: Test C pre-/postemergence test; type: in vivo, Ambrosia elation; conditions: for Plant response rating, Ragweed: 31 g ai/ha, scale 0 to 100 (0 no effect, 100 complete control)
Summary of the method: as §1

giant foxtail = experiment: Test A pre-/postemergence greenhouse test; type: in vivo, Setaria faberi; conditions: for Foxtail, Giant plant response rating: 0 to 100 scale; for Plant response rating, Foxtail, Giant: 0 to 100 scale where 0 is no effect and 100 is complete control
Summary of the method: (§2)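 Test compounds in non-phytotoxic solvent with surfactant were applied as a preemergence soil spray to seeded loam/sand pots and, concurrently, postemergence to plants at 2–10 cm, one- to two-leaf stage. About ten days in greenhouse, then injury visually rated against untreated controls.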

Russian thistle = experiment: Test C pre-/postemergence test; type: in vivo, Salsola kali; conditions: for Plant response rating, Russian Thistle: 31 g ai/ha, scale 0 to 100 (0 no effect, 100 complete control)
Text: Seeds of plant species selected from blackgrass (Alopecurus myosuroides), downy brome (Bromus tectorum), green foxtail (Setaria viridis), Italian ryegrass (Lolium multiflorum), wheat (Triticum aestivum), wild oat (Avena fatua), catchweed bedstraw (Galium aparine), Russian thistle (Salsola kali), […] (Cynodon dactylon), Surinam grass (Brachiaria decumbens), cocklebur (Xanthium strumarium), corn (Zea mays), crabgrass (Digitaria sanguinalis), woolly cupgrass (Eriochloa villosa), giant foxtail (Setaria faberii), Goosegrass (Eleusin indica), johnsongrass (Sorghum halepense), kochia (Kochia scoparia), lambsquarters (Chenopodium album), morningglory (Ipomoea coccinea), eastern black nightshade (Solanum ptycanthum), yellow nutsedge (Cyperus esculentus), pigweed (Amaranthus retroflexus), common ragweed (Ambrosia elation), soybean (Glycine max), common (oilseed) sunflower (Helianthus annuus), and velvetleaf (Abutilon theophrasti) were planted and treated preemergence with test chemicals formulated in a non-phytotoxic solvent mixture which included a surfactant. At the same time, plants selected from these crop and weed species and also winter barley (Hordeum vulgare), canarygrass (Phalaris minor), and chickweed (Stellaria media) were treated with postemergence applications of some of the test chemicals formulated in the same manner. Plants ranged in height from 2 to 18 cm (1- to 4-leaf stage) for postemergence treatments. […] At time of treatment, test pots were flooded to 3 cm above the soil surface, treated by application of test compounds directly to the paddy water, and then maintained at that water depth for the duration of the test. […] A dash (-) response means no test result.

barnyardgrass = experiment: Test C flooded paddy test; type: in vivo, Echinochloa crus-galli; conditions: Flood
Summary of the method: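 Pots were flooded to 3 cm above the soil surface at treatment, compound applied directly to the paddy water, and that depth held throughout. Plants were kept in a greenhouse for 13 to 15 days, then visually rated against untreated controls.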

velvetleaf = experiment: Test A pre-/postemergence greenhouse test; type: in vivo, Abutilon theophrasti; conditions: for Velvetleaf plant response rating: 0 to 100 scale; for Plant response rating, Velvetleaf: 0 to 100 scale where 0 is no effect and 100 is complete control
Summary of the method: as §2

[1] = 62 g ai/ha, Preemergence, scale 0 to 100
[2] = Postemergence, 125 g ai/ha, 0 is no effect, 100 is complete control
[3] = Postemergence, 500 g ai/ha, 0 is no effect, 100 is complete control
[4] = Preemergence, 125 g ai/ha, 0 no effect, 100 complete control
[5] = 31 g ai/ha, scale 0 to 100 (0 no effect, 100 complete control)
[6] = 62 g ai/ha, scale 0 to 100, 0 no effect, 100 complete control, 13 to 15 days
[7] = 125 g ai/ha, scale 0 to 100, 0 no effect, 100 complete control, 13 to 15 days
[8] = 125 g ai/ha, preemergence, scale 0 (no effect) to 100 (complete control)
[9] = preemergence, 250 g ai/ha, scale 0 (no effect) to 100 (complete control)
[10] = 250 g ai/ha, scale 0 to 100, 0 no effect, 100 complete control, 13 to 15 days
[11] = 62 g ai/ha, scale 0 to 100 (0 no effect, 100 complete control)
[12] = Preemergence, 500 g ai/ha, 0 no effect, 100 complete control

| Structure (SMILES) | Wheat plant response rating (wheat; [1]) | Plant response rating, Wheat (wheat; Preemergence) | Ragweed plant response rating (common ragweed; [1]) | Plant response rating, Ragweed (common ragweed; Preemergence) | Foxtail, Giant plant response rating (giant foxtail; [2]) | Foxtail, Giant plant response rating (giant foxtail; [3]) | Foxtail, Giant plant response rating (giant foxtail; [4]) | Plant response rating, Foxtail, Giant (giant foxtail; Preemergence, 500 g ai/ha) | Russian Thistle plant response rating (Russian thistle; [1]) | Plant response rating, Russian Thistle (Russian thistle; Preemergence) | Velvetleaf plant response rating (velvetleaf; [3]) | Velvetleaf plant response rating (velvetleaf; [4]) | Plant response rating, Velvetleaf (velvetleaf; Preemergence, 500 g ai/ha) | Wheat plant response rating (wheat; [8]) | Wheat plant response rating (wheat; [9]) | Ragweed plant response rating (common ragweed; [8]) | Ragweed plant response rating (common ragweed; [9]) | Russian Thistle plant response rating (Russian thistle; [8]) | Russian Thistle plant response rating (Russian thistle; [9]) | Plant response rating, Barnyardgrass (barnyardgrass; [10]) | also measured |
| --- | --- | --- | --- | --- | --- | --- | --- | --- | --- | --- | --- | --- | --- | --- | --- | --- | --- | --- | --- | --- | --- |
| Cn1nc(C(F)(F)F)c(CS(=O)(=O)c2cc(C(C)(C)C)cc[n+]2[O-])c1OC(F)F [Compound 25] | 20 | 0 | 10 | 0 | 30 | 70 | 100 | 100 | 100 | 100 | 50 | 60 | 100 |  |  |  |  |  |  |  | Plant response rating, Barnyardgrass (barnyardgrass; [5]): 0; Plant response rating, Barnyardgrass (barnyardgrass; [6]): 0; Plant response rating, Barnyardgrass (barnyardgrass; [7]): 30; Plant response rating, Barnyardgrass (barnyardgrass; 250 g ai/ha, scale 0 to 100 (0 no effect, 100 complete control)): 80; Velvetleaf plant response rating (velvetleaf; [2]): 30 |
| Cn1nc(C(F)(F)F)c(C[S+]([O-])c2cc(Br)cc[n+]2[O-])c1Cl (racemic) [Compound 35] | 25 | 0 | 0 | 0 | 50 | 80 | 100 | 100 | 100 | 100 | 60 | 30 | 90 | 25 | 25 | 50 | 85 | 100 | 100 | 40 | Plant response rating, Barnyardgrass (barnyardgrass; [5]): 0; Plant response rating, Barnyardgrass (barnyardgrass; [6]): 0; Plant response rating, Barnyardgrass (barnyardgrass; [7]): 20; Velvetleaf plant response rating (velvetleaf; [2]): 50 |
| C#CCOc1c(C[S+]([O-])c2cccc[n+]2[O-])c(C(F)(F)F)nn1C (centres unmarked) [Compound 76] | 60 | 0 | 20 |  |  | 90 | 90 | 100 | 100 | 0 | 80 | 50 | 80 | 98 | 100 | 100 | 100 | 100 | 100 | 20 | Plant response rating, Foxtail, Giant (giant foxtail; Postemergence, 125 g ai/ha): 80; Plant response rating, Barnyardgrass (barnyardgrass; [11]): 0; Plant response rating, Velvetleaf (velvetleaf; Postemergence, 125 g ai/ha): 60 |
| Cn1nc(C(F)(F)F)c(C[S+]([O-])c2cccc[n+]2[O-])c1OCC(F)F (centres unmarked) [Compound 75] | 30 | 0 | 80 | 0 |  | 90 | 90 | 100 | 100 | 100 | 80 | 60 | 100 | 60 | 95 | 85 | 100 | 100 | 100 | 45 | Plant response rating, Foxtail, Giant (giant foxtail; Postemergence, 125 g ai/ha): 80; Plant response rating, Barnyardgrass (barnyardgrass; [11]): 0; Plant response rating, Velvetleaf (velvetleaf; Postemergence, 125 g ai/ha): 40 |
| CCc1cc[n+]([O-])c([S+]([O-])Cc2c(C(F)(F)F)nn(C)c2OC(F)F)c1 (centres unmarked) [Compound 101] | 65 | 50 | 10 | 0 |  | 90 | 100 |  | 100 | 100 | 90 | 80 |  | 85 | 95 | 100 | 100 | 100 | 100 | 70 | Plant response rating, Foxtail, Giant (giant foxtail; Postemergence, 125 g ai/ha): 80; Foxtail, Giant plant response rating (giant foxtail; [12]): 100; Plant response rating, Barnyardgrass (barnyardgrass; [11]): 0; Plant response rating, Velvetleaf (velvetleaf; Postemergence, 125 g ai/ha): 70; Velvetleaf plant response rating (velvetleaf; [12]): 100 |
| Cn1nc(C(F)(F)F)c(C[S+]([O-])c2cc(C(F)(F)F)cc[n+]2[O-])c1Cl (racemic) [Compound 34] | 10 | 0 | 45 | 45 | 10 | 60 | 100 | 100 | 100 | 70 | 60 | 30 | 60 |  |  |  |  |  |  | 30 | Plant response rating, Barnyardgrass (barnyardgrass; [5]): 0; Plant response rating, Barnyardgrass (barnyardgrass; [6]): 0; Plant response rating, Barnyardgrass (barnyardgrass; [7]): 0; Velvetleaf plant response rating (velvetleaf; [2]): 30 |
